Data on 40 molecules can be found in patent US11560370B1, “5-membered heteroaryl carboxamide compounds for treatment of HBV” (Assembly Biosciences, Inc., priority 2018, dated 2023).

The first test has as its system HBV. Description: Viral production from HepAD38 cells, viral load by qPCR of HBV core sequence. It is filed as cell-based. The following applies: 5 days, supernatant HBV DNA by qPCR, read-out: Viral Load EC50 Activity range. The method in brief: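 HepAD38 cells in tetracycline-free medium with 2% FBS, 50,000 cells/well, treated 5 days at 37° C. with compound from 10 μM top concentration (1% DMSO final). Supernatant HBV DNA measured by TaqMan qPCR of core sequence against standards, versus DMSO wells; viability by CellTiter-Glo; EC50/CC50 by four-parameter fit.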
Consider `Cn1nc(C2CC3CC(C#N)CC3C2)c(C(=O)Nc2ccc(F)c(Cl)c2)c1N` (stereo not shown) [AIA-027], for which the EC50 was below 100 nM.

With `CSC1CC2CC(c3nn(C)c(N)c3C(=O)Nc3ccc(F)c(Cl)c3)CC2C1` (stereo not shown) [AIA-028], the EC50 is below 100 nM.

Consider `Cn1nc(C2CC3CC(S(C)(=O)=O)CC3C2)c(C(=O)Nc2ccc(F)c(Cl)c2)c1N` (stereo not shown) [AIA-030], for which the EC50 is below 100 nM.

Regarding `Cn1nc([C@@H]2CC3C/C(=N/O)C[C@@H]3C2)c(C(=O)Nc2ccc(F)c(Cl)c2)c1N` (stereo partly shown) [AIA-032-A], the EC50 is below 100 nM.

On to `Cn1nc([C@H]2CC3C/C(=N/O)C[C@@H]3C2)c(C(=O)Nc2ccc(F)c(Cl)c2)c1N` (stereo partly shown) [AIA-032-B], for which the EC50 is below 100 nM.

For `Cn1nc(C2CC3CNC(=O)CC3C2)c(C(=O)Nc2ccc(F)c(Cl)c2)c1N` (stereo not shown) [AIA-033], the EC50 was below 100 nM.

Take `Cn1nc(C2CC3CC(NS(C)(=O)=O)CC3C2)c(C(=O)Nc2ccc(F)c(Cl)c2)c1N` (stereo not shown) [AIA-042]: the EC50 is below 100 nM.

With `CN(C1CC2CC(c3nn(C)c(N)c3C(=O)Nc3ccc(F)c(Cl)c3)CC2C1)S(C)(=O)=O` (stereo not shown) [AIA-043], the EC50 is below 100 nM.

Consider `Cn1nc(C2CC3CC(N4CCCS4(=O)=O)CC3C2)c(C(=O)Nc2ccc(F)c(Cl)c2)c1N` (stereo not shown) [AIA-044], for which the concentration for a half-maximal effect (EC50) was below 100 nM.

For `Cn1nc(C2CC3CC(N4CCOC4=O)CC3C2)c(C(=O)Nc2ccc(F)c(Cl)c2)c1N` (stereo not shown) [AIA-046], the EC50 was below 100 nM.

`Cn1nc(C2CC3CC(N4CCNC4=O)CC3C2)c(C(=O)Nc2ccc(F)c(Cl)c2)c1N` (stereo not shown) [AIA-047]: the EC50 was below 100 nM.

As for `Cn1cc(C2CC3CC(c4nn(C)c(N)c4C(=O)Nc4ccc(F)c(Cl)c4)CC3C2)cn1` (stereo not shown) [AIA-049], the EC50 was below 100 nM.

For `Cn1nc(C2CC3CSCC3C2)c(C(=O)Nc2ccc(F)c(Cl)c2)c1N` (stereo not shown) [AIA-055], the EC50 was below 100 nM.

With `Cn1nc(C2CC3CC(N)CC3C2)c(C(=O)Nc2ccc(F)c(Cl)c2)c1N` (stereo not shown) [AIA-073], the EC50 lay within 100 to 500 nM.

For `Cn1nc(C2CC3CC([S+](C)[O-])CC3C2)c(C(=O)Nc2ccc(F)c(Cl)c2)c1N` (stereo not shown) [AIA-074], the EC50 is below 100 nM.

On to `Cn1nc(C2CC3CC(NS(=O)(=O)C(F)(F)F)CC3C2)c(C(=O)Nc2ccc(F)c(Cl)c2)c1N` (stereo not shown) [AIA-086], for which the EC50 is below 100 nM.

On to `CNC1CC2CC(c3nn(C)c(N)c3C(=O)Nc3ccc(F)c(Cl)c3)CC2C1` (stereo not shown) [AIA-102], for which the EC50 lay within 100 to 500 nM.

As to `Cn1nc([C@@H]2CC3CC(O)(CS(C)(=O)=O)C[C@@H]3C2)c(C(=O)Nc2ccc(F)c(Cl)c2)c1N` (stereo partly shown) [AIA-227-1, 5-Amino-N-(3-chloro-4-fluorophenyl)-3-((2r,5r)-5-hydroxy-5-(methylsulfonylmethyl)octahydropentalen-2-yl)-1-methyl-1H-pyrazole-4-carboxamide], the EC50 is below 100 nM.

The test is the same for the next values; noted with them: Hepatitis B virus, HePAD38, 120 h, 5 days, supernatant HBV DNA by qPCR, read-out: Viral Load EC50 Activity range.
Regarding `CN(C)C(=O)CC1CC2CC(c3nn(C)c(N)c3C(=O)Nc3ccc(F)c(Cl)c3)CC2C1` (stereo not shown) [AIA-020, 5-Amino-N-(3-chloro-4-fluorophenyl)-3-(5-(2-(dimethylamino)-2-oxoethyl)octahydropentalen-2-yl)-1-methyl-1H-pyrazole-4-carboxamide], the EC50 is below 100 nM.

Turning to `Cn1nc(C2CC3CC(CC(N)=O)CC3C2)c(C(=O)Nc2ccc(F)c(Cl)c2)c1N` (stereo not shown) [AIA-021, 5-Amino-3-(5-(2-amino-2-oxoethyl)octahydropentalen-2-yl)-N-(3-chloro-4-fluorophenyl)-1-methyl-1H-pyrazole-4-carboxamide], the half-maximal effective concentration (EC50) was below 100 nM.

For `COC(=O)N1CC2CC(c3nn(C)c(N)c3C(=O)Nc3ccc(F)c(Cl)c3)CC2C1` (stereo not shown) [AIA-022], the EC50 was below 100 nM.

As to `CNC(=O)N1CC2CC(c3nn(C)c(N)c3C(=O)Nc3ccc(F)c(Cl)c3)CC2C1` (stereo not shown) [AIA-023, 5-(5-Amino-4-(3-chloro-4-fluorophenylcarbamoyl)-1-methyl-1H-pyrazol-3-yl)-N-methylhexahydrocyclopenta[c]pyrrole-2(1H)-carboxamide], the concentration for a half-maximal effect (EC50) was below 100 nM.

For `Cn1nc(C2CC3CN(S(C)(=O)=O)CC3C2)c(C(=O)Nc2ccc(F)c(Cl)c2)c1N` (stereo not shown) [AIA-024, 5-Amino-N-(3-chloro-4-fluorophenyl)-1-methyl-3-(2-(methylsulfonyl)octa hydrocyclopenta[c]pyrrol-5-yl)-1H-pyrazole-4-carboxamide], the EC50 is below 100 nM.

As for `Cn1nc(C2CC3CN(C(=O)N4CCCC4)CC3C2)c(C(=O)Nc2ccc(F)c(Cl)c2)c1N` (stereo not shown) [AIA-025, 5-Amino-N-(3-chloro-4-fluorophenyl)-1-methyl-3-(2-(pyrrolidine-1-carbonyl)octahydrocyclopenta[c]pyrrol-5-yl)-1H-pyrazole-4-carboxamide], the EC50 is below 100 nM.

`CCSC1CC2CC(c3nn(C)c(N)c3C(=O)Nc3ccc(F)c(Cl)c3)CC2C1` (stereo not shown) [AIA-029, 5-Amino-N-(3-chloro-4-fluorophenyl)-3-(5-(ethylthio)octahydropentalen-2-yl)-1-methyl-1H-pyrazole-4-carboxamide]: the concentration for a half-maximal effect (EC50) is below 100 nM.

Take `CCS(=O)(=O)C1CC2CC(c3nn(C)c(N)c3C(=O)Nc3ccc(F)c(Cl)c3)CC2C1` (stereo not shown) [AIA-031, 5-Amino-N-(3-chloro-4-fluorophenyl)-3-(5-(ethylsulfonyl)octahydropentalen-2-yl)-1-methyl-1H-pyrazole-4-carboxamide]: the 50% effective concentration (EC50) was below 100 nM.

Consider `Cn1nc(C2CC3CC(N4CCCC4)CC3C2)c(C(=O)Nc2ccc(F)c(Cl)c2)c1N` (stereo not drawn) [AIA-040, 5-Amino-N-(3-chloro-4-fluorophenyl)-1-methyl-3-(5-(pyrrolidin-l-yl)octahydropentalen-2-yl)-1H-pyrazole-4-carboxamide], for which the EC50 is below 100 nM.

`Cn1nc(C2CC3CC(N4CCOCC4)CC3C2)c(C(=O)Nc2ccc(F)c(Cl)c2)c1N` (stereo not shown) [AIA-041, 5-Amino-N-(3-chloro-4-fluorophenyl)-1-methyl-3-(5-morpholinooctahydropentalen-2-yl)-1H-pyrazole-4-carboxamide]: the concentration for a half-maximal effect (EC50) is below 100 nM.

Regarding `Cn1nc(C2CC3CC(n4cccn4)CC3C2)c(C(=O)Nc2ccc(F)c(Cl)c2)c1N` (stereo not shown) [AIA-048, 3-(5-(1H-Pyrazol-1-yl)octahydropentalen-2-yl)-5-amino-N-(3-chloro-4-fluorophenyl)-1-methyl-1H-pyrazole-4-carboxamide], the EC50 is below 100 nM.

`Cn1cc(-c2ccc([C@H]3CC[C@@H](c4nn(C)c(N)c4C(=O)Nc4ccc(F)c(Cl)c4)C3)cc2)cn1` [AIA-050-A, 5-Amino-N-(3-chloro-4-fluorophenyl)-1-methyl-3-((1R,3S)-3-(4-(1-methyl-1H-pyrazol-4-yl)phenyl)cyclopentyl)-1H-pyrazole-4-carboxamide]: the EC50 was below 100 nM.

Take `Cn1cc(-c2ccc([C@H]3CC[C@H](c4nn(C)c(N)c4C(=O)Nc4ccc(F)c(Cl)c4)C3)cc2)cn1` [AIA-050-B, 5-amino-N-(3-chloro-4-fluorophenyl)-1-methyl-3-((1S,3S)-3-(4-(1-methyl-1H-pyrazol-4-yl)phenyl)cyclopentyl)-1H-pyrazole-4-carboxamide]: the EC50 is below 100 nM.

Take `CN1CC2CC(c3nn(C)c(N)c3C(=O)Nc3ccc(F)c(Cl)c3)CC2C1` (stereo not shown) [AIA-052, 5-Amino-N-(3-chloro-4-fluorophenyl)-1-methyl-3-(2-methyloctahydrocyclopenta [c]pyrrol-5-yl)-1H-pyrazole-4-carboxamide]: the EC50 lay within 500 to 10000 nM.

`CC(C)N1CC2CC(c3nn(C)c(N)c3C(=O)Nc3ccc(F)c(Cl)c3)CC2C1` (stereo not shown) [AIA-053, 5-Amino-N-(3-chloro-4-fluorophenyl)-3-(2-isopropyloctahydrocyclopenta[c]pyrrol-5-yl)-1-methyl-1H-pyrazole-4-carboxamide]: the EC50 lay within 500 to 10000 nM.

On to `CC(N1CC2CC(c3nn(C)c(N)c3C(=O)Nc3ccc(F)c(Cl)c3)CC2C1)C(F)(F)F` (stereo not shown) [AIA-054, 5-Amino-N-(3-chloro-4-fluorophenyl)-1-methyl-3-(2-(1,1,1-trifluoropropan-2-yl)octahydrocyclopenta[c]pyrrol-5-yl)-1H-pyrazole-4-carboxamide], for which the EC50 was below 100 nM.

On to `Cn1nc(C2CC3CC(OC(C)(C)C)CC3C2)c(C(=O)Nc2ccc(F)c(Cl)c2)c1N` (stereo not shown) [AIA-058, 5-Amino-3-(5-(tert-butoxy)octahydropentalen-2-yl)-N-(3-chloro-4-fluorophenyl)-1-methyl-1H-pyrazole-4-carboxamide], for which the EC50 was below 100 nM.

On to `CC[S+]([O-])C1CC2CC(c3nn(C)c(N)c3C(=O)Nc3ccc(F)c(Cl)c3)CC2C1` (stereo not shown) [AIA-075, 5-Amino-N-(3-chloro-4-fluorophenyl)-3-(5-(ethylsulfinyl)octahydropentalen-2-yl)-1-methyl-1H-pyrazole-4-carboxamide], for which the EC50 is below 100 nM.

Regarding `Cn1nc(C2CC3CC(O)(C4CC4)CC3C2)c(C(=O)Nc2ccc(F)c(Cl)c2)c1N` (stereo not shown) [AIA-077, 5-Amino-N-(3-chloro-4-fluorophenyl)-3-(5-cyclopropyl-5-hydroxyoctahydropentalen-2-yl)-1-methyl-1H-pyrazole-4-carboxamide], the half-maximal effective concentration (EC50) is below 100 nM.

Take `CC(C)S(=O)(=O)N1CC2CC(c3nn(C)c(N)c3C(=O)Nc3ccc(F)c(Cl)c3)CC2C1` (stereo not shown) [AIA-085, 5-Amino-N-(3-chloro-4-fluorophenyl)-3-(2-(isopropylsulfonyl)octahydrocyclopentyl[c]pyrrol-5-yl)-1-methyl-1H-pyrazole-4-carboxamide]: the EC50 is below 100 nM.

In the case of `Cn1nc(C2CC3CC(OCC(F)(F)F)CC3C2)c(C(=O)Nc2ccc(F)c(Cl)c2)c1N` (stereo not shown) [AIA-101, 5-Amino-N-(3-chloro-4-fluorophenyl)-1-methyl-3-(5-(2,2,2-trifluoroethoxy)octahydropentalen-2-yl)-1H-pyrazole-4-carboxamide], the EC50 was below 100 nM.

As for `Cn1nc(C2CC3CC(NCCO)CC3C2)c(C(=O)Nc2ccc(F)c(Cl)c2)c1N` (stereo not shown) [AIA-103, 5-Amino-N-(3-chloro-4-fluorophenyl)-3-(5-((2-hydroxyethyl)amino)octahydropentalen-2-yl)-1-methyl-1H-pyrazole-4-carboxamide], the EC50 lay in the range of 100 to 500 nM.

A word on the EC50: it is the concentration at which the effect is half-maximal.
